Assay [1] concerns the target T1, E. multilocularis DNA damage-inducible 1 protein (EmuDdi1) (Echinococcus multilocularis, UniProt A0A068Y9Y4).
T1 sequence (A0A068Y9Y4 1-390): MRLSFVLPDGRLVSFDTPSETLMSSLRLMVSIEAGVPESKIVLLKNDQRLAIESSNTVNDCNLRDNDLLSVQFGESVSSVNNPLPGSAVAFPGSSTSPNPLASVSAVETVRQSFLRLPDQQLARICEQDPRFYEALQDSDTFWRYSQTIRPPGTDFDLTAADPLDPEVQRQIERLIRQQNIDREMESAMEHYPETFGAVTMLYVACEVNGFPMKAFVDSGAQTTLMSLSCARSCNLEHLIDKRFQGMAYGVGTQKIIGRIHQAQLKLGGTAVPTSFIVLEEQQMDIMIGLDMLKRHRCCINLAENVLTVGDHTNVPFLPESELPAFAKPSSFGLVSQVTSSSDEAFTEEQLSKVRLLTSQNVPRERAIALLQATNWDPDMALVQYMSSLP
In words: fluorogenic aspartyl protease assay. Format: biochemical.

Assay [2] has as its target T1, E. multilocularis DNA damage-inducible 1 protein (EmuDdi1). In words: fluorogenic aspartyl protease assay, single concentration. Format: biochemical. The following applies: read-out: % inhibition at 40 μM.

As to `Cc1c(O)cccc1C(=O)N[C@@H](CSc1ccccc1)[C@H](O)CN1C[C@H]2CCCC[C@H]2C[C@H]1C(=O)NC(C)(C)C` [NFV, nelfinavir], inhibition in assay [1] was half-maximal at 45.9 µM (IC50).
`CC(C)(C)NC(=O)[C@@H]1C[C@@H]2CCCC[C@@H]2CN1C[C@@H](O)[C@H](Cc1ccccc1)NC(=O)[C@H](CC(N)=O)NC(=O)c1ccc2ccccc2n1` [SQV, saquinavir]: in assay [2], the inhibition (as a rule, the relative decrease from the control value, in per cent) at 40 µM was about 40%.

The record behind these values is publication PMC9294487 (eBioMedicine, 2022).
